This passage reports ΔTm results from ChEMBL document CHEMBL1145498, “A systematic interaction map of validated kinase inhibitors with Ser/Thr kinases” (Proc Natl Acad Sci U S A, 2007).

Experiment [1] addresses Dual specificity mitogen-activated protein kinase kinase 2 (Homo sapiens, UniProt P36507).
Experiment [2] addresses Dual specificity protein kinase CLK2 (Homo sapiens) (UniProt P49760).
For experiment [3], the target named is STE20-like serine/threonine-protein kinase (Homo sapiens) (UniProt Q9H2G2).
STE20-like serine/threonine-protein kinase (Homo sapiens), sequence (Q9H2G2 whole entry, looked up): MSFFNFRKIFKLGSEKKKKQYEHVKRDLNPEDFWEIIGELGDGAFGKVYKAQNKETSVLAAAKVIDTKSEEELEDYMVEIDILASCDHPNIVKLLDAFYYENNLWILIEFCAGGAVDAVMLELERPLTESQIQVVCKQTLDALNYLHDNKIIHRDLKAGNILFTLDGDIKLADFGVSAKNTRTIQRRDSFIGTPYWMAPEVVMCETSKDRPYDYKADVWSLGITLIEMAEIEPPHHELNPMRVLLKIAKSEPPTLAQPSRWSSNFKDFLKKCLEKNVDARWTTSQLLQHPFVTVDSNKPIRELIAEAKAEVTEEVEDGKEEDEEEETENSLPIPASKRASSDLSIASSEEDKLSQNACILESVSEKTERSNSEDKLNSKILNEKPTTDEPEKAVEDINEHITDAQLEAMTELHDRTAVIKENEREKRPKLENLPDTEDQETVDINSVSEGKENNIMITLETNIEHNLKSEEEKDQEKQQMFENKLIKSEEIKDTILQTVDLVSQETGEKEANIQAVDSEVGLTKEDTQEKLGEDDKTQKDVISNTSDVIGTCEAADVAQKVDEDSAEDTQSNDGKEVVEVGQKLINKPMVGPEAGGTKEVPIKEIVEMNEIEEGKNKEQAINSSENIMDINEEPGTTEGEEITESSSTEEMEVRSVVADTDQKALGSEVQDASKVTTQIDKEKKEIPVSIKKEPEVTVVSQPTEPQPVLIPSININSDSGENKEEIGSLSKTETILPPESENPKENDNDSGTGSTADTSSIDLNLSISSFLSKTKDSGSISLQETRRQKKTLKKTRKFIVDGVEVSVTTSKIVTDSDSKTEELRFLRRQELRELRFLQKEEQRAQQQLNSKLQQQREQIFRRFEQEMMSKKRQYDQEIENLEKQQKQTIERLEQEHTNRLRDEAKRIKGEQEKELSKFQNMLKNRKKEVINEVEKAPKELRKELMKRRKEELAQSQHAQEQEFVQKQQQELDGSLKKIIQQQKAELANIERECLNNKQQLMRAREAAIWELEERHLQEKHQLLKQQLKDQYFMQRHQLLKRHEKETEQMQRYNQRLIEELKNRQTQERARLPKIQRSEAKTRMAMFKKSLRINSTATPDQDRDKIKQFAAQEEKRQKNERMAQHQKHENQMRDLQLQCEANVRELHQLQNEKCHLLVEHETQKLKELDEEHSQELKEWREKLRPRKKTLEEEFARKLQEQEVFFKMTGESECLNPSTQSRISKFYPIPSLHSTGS
Experiment [4] deals with Serine/threonine-protein kinase RIO2 (Homo sapiens) (UniProt Q9BVS4).
Serine/threonine-protein kinase RIO2 (Homo sapiens), sequence (Q9BVS4 whole entry, looked up): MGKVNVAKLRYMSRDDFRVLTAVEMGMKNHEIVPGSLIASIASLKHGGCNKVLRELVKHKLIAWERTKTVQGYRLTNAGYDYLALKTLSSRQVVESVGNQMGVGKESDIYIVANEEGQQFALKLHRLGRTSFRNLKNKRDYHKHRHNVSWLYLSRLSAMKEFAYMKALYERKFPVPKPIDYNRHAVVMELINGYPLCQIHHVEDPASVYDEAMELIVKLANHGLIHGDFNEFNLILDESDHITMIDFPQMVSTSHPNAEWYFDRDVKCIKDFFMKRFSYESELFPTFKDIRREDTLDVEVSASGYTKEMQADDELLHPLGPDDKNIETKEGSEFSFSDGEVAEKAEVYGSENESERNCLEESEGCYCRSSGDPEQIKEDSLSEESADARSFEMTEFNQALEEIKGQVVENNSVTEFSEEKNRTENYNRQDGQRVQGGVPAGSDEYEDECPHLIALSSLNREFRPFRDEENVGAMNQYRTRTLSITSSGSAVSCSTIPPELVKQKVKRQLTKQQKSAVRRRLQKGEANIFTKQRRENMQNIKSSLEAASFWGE
Experiment [5] deals with T1, Serine/threonine-protein kinase PLK4 (Homo sapiens) (UniProt O00444).
T1 sequence (whole entry): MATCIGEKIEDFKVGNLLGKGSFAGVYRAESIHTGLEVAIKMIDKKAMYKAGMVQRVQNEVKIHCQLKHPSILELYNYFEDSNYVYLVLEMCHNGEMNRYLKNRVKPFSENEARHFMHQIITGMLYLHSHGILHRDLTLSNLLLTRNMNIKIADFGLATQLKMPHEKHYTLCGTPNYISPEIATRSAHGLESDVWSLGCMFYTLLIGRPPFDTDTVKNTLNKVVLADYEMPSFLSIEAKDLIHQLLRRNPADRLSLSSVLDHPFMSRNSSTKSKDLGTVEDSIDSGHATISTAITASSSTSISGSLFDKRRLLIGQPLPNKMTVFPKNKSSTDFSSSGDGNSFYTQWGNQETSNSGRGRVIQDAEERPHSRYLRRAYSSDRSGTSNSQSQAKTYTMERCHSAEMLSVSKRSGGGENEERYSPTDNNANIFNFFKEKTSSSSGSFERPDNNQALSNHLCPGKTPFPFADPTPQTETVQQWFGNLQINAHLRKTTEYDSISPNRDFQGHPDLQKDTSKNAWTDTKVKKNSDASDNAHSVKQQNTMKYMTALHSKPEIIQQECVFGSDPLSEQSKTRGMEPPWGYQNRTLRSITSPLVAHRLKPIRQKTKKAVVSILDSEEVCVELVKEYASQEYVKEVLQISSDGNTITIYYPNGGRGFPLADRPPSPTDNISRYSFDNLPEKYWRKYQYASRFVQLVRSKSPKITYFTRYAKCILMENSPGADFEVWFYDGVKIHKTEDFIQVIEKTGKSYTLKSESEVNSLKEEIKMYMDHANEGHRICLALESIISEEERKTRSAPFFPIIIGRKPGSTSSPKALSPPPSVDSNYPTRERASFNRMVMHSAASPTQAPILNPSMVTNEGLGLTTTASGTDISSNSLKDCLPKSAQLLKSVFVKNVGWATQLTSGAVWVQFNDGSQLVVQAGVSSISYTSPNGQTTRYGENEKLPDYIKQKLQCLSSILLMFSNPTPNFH

The target of experiment [6] is Casein kinase I isoform gamma-3 (Homo sapiens) (UniProt Q9Y6M4).
Casein kinase I isoform gamma-3 (Homo sapiens), sequence (Q9Y6M4 whole entry, looked up, canonical isoform): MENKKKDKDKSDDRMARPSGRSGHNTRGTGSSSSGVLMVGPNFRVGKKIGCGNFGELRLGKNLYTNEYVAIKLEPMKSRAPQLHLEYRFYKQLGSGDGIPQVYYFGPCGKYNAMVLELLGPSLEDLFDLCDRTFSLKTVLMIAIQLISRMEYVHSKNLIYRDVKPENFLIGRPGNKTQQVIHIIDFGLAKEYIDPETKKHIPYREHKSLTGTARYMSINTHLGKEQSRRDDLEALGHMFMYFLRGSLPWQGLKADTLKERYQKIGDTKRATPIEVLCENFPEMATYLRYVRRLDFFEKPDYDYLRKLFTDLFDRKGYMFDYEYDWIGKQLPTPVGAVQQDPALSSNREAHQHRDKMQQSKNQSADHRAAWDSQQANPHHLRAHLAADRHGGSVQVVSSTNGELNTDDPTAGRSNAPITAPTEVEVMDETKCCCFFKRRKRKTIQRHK
In experiment [7] the target is Serine/threonine-protein kinase pim-3 (Homo sapiens) (UniProt Q86V86).
For experiment [8], the target named is T2, Lymphokine-activated killer T-cell-originated protein kinase (Homo sapiens) (UniProt Q96KB5).
T2 sequence (whole entry): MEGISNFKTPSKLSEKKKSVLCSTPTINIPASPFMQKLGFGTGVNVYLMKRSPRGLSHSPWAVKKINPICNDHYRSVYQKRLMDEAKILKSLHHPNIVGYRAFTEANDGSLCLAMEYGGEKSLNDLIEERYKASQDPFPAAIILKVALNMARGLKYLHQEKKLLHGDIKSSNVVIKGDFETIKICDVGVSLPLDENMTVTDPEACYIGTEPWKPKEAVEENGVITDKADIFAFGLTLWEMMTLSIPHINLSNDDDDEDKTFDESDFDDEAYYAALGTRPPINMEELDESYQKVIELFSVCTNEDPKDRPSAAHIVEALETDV

The target in experiment [9] is Mitogen-activated protein kinase 6 (Homo sapiens) (UniProt Q16659).
Mitogen-activated protein kinase 6 (Homo sapiens), sequence (Q16659 whole entry): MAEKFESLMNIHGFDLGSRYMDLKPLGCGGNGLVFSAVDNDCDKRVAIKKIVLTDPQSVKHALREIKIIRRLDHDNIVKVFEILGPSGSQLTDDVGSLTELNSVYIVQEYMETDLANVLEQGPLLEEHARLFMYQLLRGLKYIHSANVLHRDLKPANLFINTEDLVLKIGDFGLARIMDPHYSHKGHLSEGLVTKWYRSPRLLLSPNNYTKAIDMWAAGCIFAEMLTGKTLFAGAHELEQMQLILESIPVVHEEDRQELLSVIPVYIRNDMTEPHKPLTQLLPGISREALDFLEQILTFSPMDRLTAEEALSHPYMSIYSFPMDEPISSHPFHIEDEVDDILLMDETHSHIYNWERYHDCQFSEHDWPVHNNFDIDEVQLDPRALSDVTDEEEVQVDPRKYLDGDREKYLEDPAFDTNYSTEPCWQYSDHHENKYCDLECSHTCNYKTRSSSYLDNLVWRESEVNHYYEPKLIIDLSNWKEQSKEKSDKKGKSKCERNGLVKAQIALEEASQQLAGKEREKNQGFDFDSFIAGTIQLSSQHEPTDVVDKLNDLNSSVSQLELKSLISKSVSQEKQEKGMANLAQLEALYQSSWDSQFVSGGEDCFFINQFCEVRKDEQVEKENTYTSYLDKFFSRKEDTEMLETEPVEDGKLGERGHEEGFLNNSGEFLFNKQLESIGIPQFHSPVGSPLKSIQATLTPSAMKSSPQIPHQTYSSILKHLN
Experiment [10] addresses cAMP-dependent protein kinase catalytic subunit alpha (Homo sapiens) (UniProt P17612).
Experiment [11] addresses Serine/threonine-protein kinase OSR1 (Homo sapiens) (UniProt O95747).
The target in experiment [12] is Dual specificity protein kinase CLK3 (Homo sapiens) (UniProt P49761).
Dual specificity protein kinase CLK3 (Homo sapiens), sequence (P49761 whole entry, looked up, canonical isoform): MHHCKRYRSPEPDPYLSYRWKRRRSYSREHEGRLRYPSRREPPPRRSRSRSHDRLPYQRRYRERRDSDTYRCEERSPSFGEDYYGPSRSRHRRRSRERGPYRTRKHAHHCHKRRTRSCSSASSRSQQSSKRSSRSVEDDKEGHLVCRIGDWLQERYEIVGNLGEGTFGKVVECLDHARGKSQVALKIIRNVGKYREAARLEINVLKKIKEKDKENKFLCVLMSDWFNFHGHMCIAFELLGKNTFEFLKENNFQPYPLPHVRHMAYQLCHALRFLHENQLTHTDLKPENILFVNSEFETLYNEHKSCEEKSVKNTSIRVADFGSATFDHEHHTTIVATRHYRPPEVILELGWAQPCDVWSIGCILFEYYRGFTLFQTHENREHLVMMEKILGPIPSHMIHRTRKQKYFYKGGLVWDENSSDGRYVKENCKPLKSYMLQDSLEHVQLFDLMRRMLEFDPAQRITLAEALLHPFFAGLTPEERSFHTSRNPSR
The target of experiment [13] is Casein kinase I isoform gamma-2 (Homo sapiens) (UniProt P78368).
The target in experiment [14] is Dual specificity protein kinase CLK1 (Homo sapiens) (UniProt P49759).
Dual specificity protein kinase CLK1 (Homo sapiens), sequence (P49759 whole entry, looked up): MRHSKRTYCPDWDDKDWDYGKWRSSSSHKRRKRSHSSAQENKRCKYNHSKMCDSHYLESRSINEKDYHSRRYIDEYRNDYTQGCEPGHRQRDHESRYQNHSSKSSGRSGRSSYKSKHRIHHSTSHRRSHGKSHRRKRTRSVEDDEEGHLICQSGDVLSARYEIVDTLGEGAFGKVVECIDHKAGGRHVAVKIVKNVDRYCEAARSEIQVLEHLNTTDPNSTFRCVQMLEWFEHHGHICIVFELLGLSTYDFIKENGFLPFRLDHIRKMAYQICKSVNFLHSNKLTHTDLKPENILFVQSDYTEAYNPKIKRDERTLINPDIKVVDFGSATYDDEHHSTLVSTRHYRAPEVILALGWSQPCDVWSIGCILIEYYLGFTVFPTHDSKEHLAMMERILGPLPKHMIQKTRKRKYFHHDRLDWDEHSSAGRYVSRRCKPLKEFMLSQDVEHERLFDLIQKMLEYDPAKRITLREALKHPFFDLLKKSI
Experiment [15] has as its target T3, 3-phosphoinositide-dependent protein kinase 1 (Homo sapiens) (UniProt O15530).
T3 sequence (whole entry): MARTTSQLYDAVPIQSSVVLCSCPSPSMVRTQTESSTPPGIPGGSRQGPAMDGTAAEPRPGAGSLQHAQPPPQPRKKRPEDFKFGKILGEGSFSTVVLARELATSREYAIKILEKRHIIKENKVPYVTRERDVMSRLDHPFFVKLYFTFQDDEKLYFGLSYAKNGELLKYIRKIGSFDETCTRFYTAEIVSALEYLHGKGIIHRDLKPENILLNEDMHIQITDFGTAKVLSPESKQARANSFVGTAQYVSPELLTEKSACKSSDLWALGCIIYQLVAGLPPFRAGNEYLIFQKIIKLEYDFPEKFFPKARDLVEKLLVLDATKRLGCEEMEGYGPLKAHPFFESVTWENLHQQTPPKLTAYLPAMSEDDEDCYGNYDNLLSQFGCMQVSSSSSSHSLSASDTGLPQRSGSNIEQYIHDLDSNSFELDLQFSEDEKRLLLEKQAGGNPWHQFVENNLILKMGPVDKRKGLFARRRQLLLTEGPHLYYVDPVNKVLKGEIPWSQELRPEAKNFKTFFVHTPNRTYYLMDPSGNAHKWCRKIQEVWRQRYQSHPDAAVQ

In experiment [16] the target is Calcium/calmodulin-dependent protein kinase type 1D (Homo sapiens) (UniProt Q8IU85).
Experiment [17] addresses Cyclin-dependent kinase 16 (Homo sapiens) (UniProt Q00536).

Cyclin-dependent kinase 16 (Homo sapiens), sequence (Q00536 whole entry): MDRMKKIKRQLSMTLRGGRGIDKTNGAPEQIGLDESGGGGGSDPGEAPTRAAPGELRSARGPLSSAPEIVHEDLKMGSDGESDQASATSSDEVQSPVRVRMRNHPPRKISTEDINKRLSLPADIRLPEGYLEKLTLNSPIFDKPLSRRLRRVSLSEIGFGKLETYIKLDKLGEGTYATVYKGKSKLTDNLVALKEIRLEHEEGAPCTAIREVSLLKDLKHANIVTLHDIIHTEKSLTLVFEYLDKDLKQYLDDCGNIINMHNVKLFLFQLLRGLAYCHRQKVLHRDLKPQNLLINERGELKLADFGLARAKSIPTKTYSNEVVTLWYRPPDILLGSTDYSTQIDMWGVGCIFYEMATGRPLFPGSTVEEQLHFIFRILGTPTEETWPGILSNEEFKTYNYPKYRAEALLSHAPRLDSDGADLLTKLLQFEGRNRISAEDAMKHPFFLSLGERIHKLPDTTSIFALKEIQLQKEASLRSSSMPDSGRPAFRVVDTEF
Dual specificity mitogen-activated protein kinase kinase 2, sequence (P36507 whole entry): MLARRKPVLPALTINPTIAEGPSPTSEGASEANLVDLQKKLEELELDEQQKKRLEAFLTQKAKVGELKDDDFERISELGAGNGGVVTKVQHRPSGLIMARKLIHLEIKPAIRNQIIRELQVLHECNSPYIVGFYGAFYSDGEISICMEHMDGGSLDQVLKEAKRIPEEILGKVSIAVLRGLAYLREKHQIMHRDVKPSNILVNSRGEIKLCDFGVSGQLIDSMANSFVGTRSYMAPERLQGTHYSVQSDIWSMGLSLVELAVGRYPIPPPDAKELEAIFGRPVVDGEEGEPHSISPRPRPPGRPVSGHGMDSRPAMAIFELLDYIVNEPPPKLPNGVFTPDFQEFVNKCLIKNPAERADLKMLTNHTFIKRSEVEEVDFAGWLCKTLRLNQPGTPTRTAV

For the molecule `O=c1c(-c2ccc(O)cc2)coc2cc(O)cc(O)c12`, the ΔTm in experiment [1] turned out to be 0.3 °C; in experiment [2], 0.5 °C; in [3], 2.4 °C; in experiment [4] it was 0.6 °C; in experiment [5], 0.4 °C; in [6] it was 1.6 °C. The ΔTm was 3 °C in experiment [7]; 0.7 °C in experiment [8]; 1.7 °C in [9]; 2.1 °C in experiment [10]; -0.2 °C in experiment [11]; 1 °C in [12]. Moreover, the ΔTm in experiment [13] was 0.3 °C; in experiment [14] it was 1.1 °C; in experiment [15], 2.5 °C; in [16], 0.7 °C; in experiment [17] it was -0.6 °C.
Regarding `COc1ccc(CNC(=O)Nc2ncc([N+](=O)[O-])s2)cc1`, the ΔTm was -0.5 °C in experiment [1]; -0.9 °C in experiment [2]; 0.7 °C in experiment [3]; 1.7 °C in experiment [4]; 1 °C in experiment [5]; 0.6 °C in experiment [6]. Further, the ΔTm in experiment [7] turned out to be 1.5 °C; in experiment [8], 0.3 °C; in experiment [9], 1 °C; in experiment [10], 1 °C; in experiment [11] it was 1.6 °C; in experiment [12], 0.4 °C. The ΔTm is 0.1 °C in experiment [13]; 0.7 °C in experiment [14]; -0.3 °C in experiment [15]; 0.3 °C in [16]; -0.8 °C in experiment [17].
`O=S(=O)(NCCNC/C=C/c1ccc(Br)cc1)c1cccc2cnccc12`: the ΔTm in experiment [1] turned out to be 0 °C; in [2], 0.7 °C; in experiment [3] it was 1.6 °C; in experiment [4] it was 0 °C; in experiment [5], 1.1 °C; in experiment [6] it was 0.1 °C. Also, the shift in melting temperature (ΔTm) in [7] was determined as 1 °C; in [8], 0.6 °C; in experiment [9] it was 0.4 °C; in [10], 6.9 °C; in experiment [11], 0.9 °C; in [12], 1 °C. Moreover, the shift in melting temperature (ΔTm) is 0.1 °C in experiment [13]; 1.1 °C in experiment [14]; -0.7 °C in experiment [15]; -0.1 °C in experiment [16]; 0.7 °C in experiment [17].
As to `Ic1cccc(CSc2nnc(-c3ccncc3)o2)c1`, the ΔTm is -0.8 °C in [1]; 1.7 °C in experiment [2]; -0.4 °C in experiment [3]; 1.6 °C in experiment [4]; 0.1 °C in experiment [5]; 0.4 °C in experiment [6]. For the same molecule, the ΔTm is 0.2 °C in experiment [7]; 0.3 °C in [8]; -0.2 °C in experiment [9]; 0.3 °C in experiment [10]; -0.7 °C in [11]; 1.5 °C in [12]. The ΔTm in [13] is 0.5 °C; in experiment [14] it was 1.7 °C; in experiment [15] it was -0.6 °C; in experiment [16], -0.3 °C; in [17], -0.8 °C.
As for `CC(C)(C)c1cc(C=C2C(=O)C=CC2=O)cc(C(C)(C)C)c1O`, the ΔTm is -1.2 °C in experiment [1]; 0.4 °C in experiment [2]; 0.9 °C in experiment [3]; 0.3 °C in experiment [4]; 1 °C in [5]; 0.2 °C in experiment [6]. Besides, the ΔTm in experiment [7] is 0.4 °C; in experiment [8], -0.1 °C; in [9], -0.7 °C; in experiment [10], 0.8 °C; in experiment [11], 0.3 °C; in experiment [12] it was 0.1 °C. The ΔTm in experiment [13] was 0.5 °C; in experiment [14], 0 °C; in experiment [15], -0.1 °C; in [16], -2.2 °C; in [17] it was 4.4 °C.
As to `Nc1n[nH]c2nnc(-c3c(-c4ccccc4)nn4ccccc34)cc12`, the ΔTm was 0.7 °C in [1]; 0.5 °C in experiment [2]; 0.7 °C in [3]; -0.4 °C in [4]; -0.2 °C in experiment [5]; 1.1 °C in experiment [6]. For the same molecule, the ΔTm stood at 1.2 °C in experiment [7]; 0.2 °C in experiment [8]; 1.3 °C in experiment [9]; 0.3 °C in experiment [10]; 0.3 °C in experiment [11]; 0.3 °C in experiment [12]. Further, the ΔTm is 0 °C in experiment [13]; 0.7 °C in [14]; 1 °C in experiment [15]; 0.1 °C in experiment [16]; 0.2 °C in [17].
With `O=C1NC(=O)C(c2c[nH]c3ccccc23)=C1c1c[nH]c2ccccc12`, the ΔTm was 2.8 °C in experiment [1]; 2.5 °C in [2]; 4.6 °C in [3]; 0 °C in [4]; 4.2 °C in [5]; 0.7 °C in experiment [6]. Further, the ΔTm in experiment [7] is 6.3 °C; in experiment [8] it was -0.2 °C; in [9], 0.5 °C; in experiment [10] it was 1.4 °C; in [11] it was 2 °C; in experiment [12], 2.5 °C. Besides, the ΔTm in [13] was 0.7 °C; in experiment [14] it was 4.1 °C; in experiment [15], 0 °C; in [16] it was 0.6 °C; in [17], 1.7 °C.
For `NC1=NC(=O)/C(=C2\CCNC(=O)c3[nH]c(Br)cc32)N1` [HYMENIALDISINE], the ΔTm came out at 2 °C in experiment [1]; 5.6 °C in experiment [2]; 2.1 °C in experiment [3]; 0.2 °C in [4]; 3 °C in experiment [5]; 3.5 °C in experiment [6]. Besides, the ΔTm in experiment [7] was 3.8 °C; in experiment [8], 0.1 °C; in [9], -0.1 °C; in [10], 0.8 °C; in [11], 0.5 °C; in experiment [12], 8.3 °C. For the same molecule, the ΔTm was 5.6 °C in experiment [13]; 9.2 °C in experiment [14]; -0.2 °C in experiment [15]; 0 °C in experiment [16]; 0.1 °C in [17].

Usually ΔTm stands for the change in melting temperature against a reference sample.
